Measurements: patent publication US20240262835A1, “PRMT5 INHIBITING COMPOUNDS AND USES THEREOF” (ANTENGENE DISCOVERY LIMITED, priority 2023, published 2024)
Where two headings read alike, the source gives them in different places.

How the values were obtained:
[1] = tested on: HCT116 homozygous MTAP knockout cells; assay: HCT116 cell proliferation assay (CTG), MTAP knockout cells; type: cell-based, human; details: 6 days treatment, Cell Titer-Glo
Procedure: (§1) Control samples were analyzed in parallel.
(§2) On Day 0, 150 HCT116 parental or HCT116 homozygous MTAP knockout cells were seeded in 96-well plates in McCoy's 5A medium containing 10% fetal bovine serum and pen/strep. And the cells were incubated overnight at 37° C. and 5% CO2.
(§3) On Day 1, cells were treated with 9-point serial dilution of compound, using a top concentration of 50 μM, 1:5 serial dilution steps and, a DMSO-only control. And cells were incubated for 6 days.
(§4) On Day 7, cell viability was measured using a CTG assay Kit (Cell Titer-Glo; Promega, catalog no.: G7573) in accordance with the manufacturer's instructions. Assays plates were read on a EnVision™ Multilabel Reader using the Ultra-Sensitive luminescence model. The data were analyzed by GraphPad Prism 5.0 software, and the dose-effect curve was obtained by fitting the data using nonlinear S-curve regression, from which the IC50 value was calculated.

[2] = tested on: cryopreserved hepatocytes; assay: Hepatic metabolic stability (HMS) assay, cynomolgus monkey hepatocytes; details: for T1/2 (hepatocytes) C / CLint (liver) C: cynomolgus monkey hepatocytes; for T1/2 (hepatocytes) C: 1 μM test compound (3 μM positive control); for CLint (liver) C: scaled to liver; for CLint (hep) C: cynomolgus monkey, hepatocytes
PRMT5/MEP50 = PRMT5/MEP50 (Homo sapiens (Human), UniProt O14744); assay: MTase-Glo methyl transferase assay (PRMT5 inhibition); type: biochemical; details: 50 nM PRMT5/MEP50, 25 μM SAM, 5 μM Histone H4 peptide (1-21), read-out: IC50 for PRMT5 inhibiting
Procedure: The PRMT5 inhibitory activity of test compounds was determined using the MTase-Glo™ assay (Promega), which monitors the product (S-adenosyl homocysteine or SAH) of methyltransferase reactions. The PRMT5 MTase-Glo assays were conducted in a 384-well white ProxiPlate (PerkinElmer, catalog no.: 6008280) in a total volume of 12 μL. The PRMT5 enzymatic reaction (in 4 μL) contained 50 nM PRMT5/MEP50 (Reaction Biology Corp, catalog no.: HMT-22-148), 25 μM S-adenosyl methionine (SAM, Promega), 5 μM Histone H4 peptide (1-21) (BPS Bioscience, catalog no.: 52018-2) and five-fold serially diluted compounds in a reaction buffer of 50 mM Tris (pH 8.0), 50 mM NaCl, 0.01% Tween 20, 0.01% BSA, and 1 mM DTT. The test compounds were pre-incubated with PRMT5/MEP50 and Histone H4 peptide for 20 minutes at room temperature before the addition of SAM to initiate the PRMT5 reaction. The reaction was allowed to proceed for 1 hour at 37° C. and was terminated by 2 μL of 3× MTase-Glo™ Reagent (Promega) and 150 μM EPZ015666 (Selleck, catalog no.: 1616391-65-1). After a 30-minute incubation at room temperature, 6 μL of MTase-Glo™ Detection Solution (Promega) was added and the plate was incubated at room temperature for an additional 30 minutes. The light signal corresponding to the amount of SAH produced by the PRMT5 reaction was subsequently measured using an Envision multimode reader (PerkinElmer). IC50 and Ki values were obtained by analyzing dose-response curves using GraphPad Prism.

[3] = tested on: cryopreserved hepatocytes; assay: Hepatic metabolic stability (HMS) assay, rat hepatocytes; details: for T1/2 (hepatocytes) R / CLint (liver) R: rat hepatocytes; for T1/2 (hepatocytes) R: 1 μM test compound (3 μM positive control); for CLint (liver) R: scaled to liver; for CLint (hep) R: rat, hepatocytes
[4] = microsomes; for CLint (mic) C / T1/2 of LMS, C: cynomolgus monkey
[5] = tested on: HCT116 parental (wild type) cells; assay: HCT116 cell proliferation assay (CTG), parental cells; type: cell-based, human; details: 6 days treatment, Cell Titer-Glo
Procedure: as §1, §2, §3, §4

[6] = microsomes; for CLint (mic) D / T1/2 of LMS, D: dog
[7] = Liver microsome metabolic stability (LMS) assay, mouse; details: mouse liver microsome 0.5 mg protein/mL, 1 μM, NADPH
[8] = In vivo pharmacokinetics assay in mice via IV and PO; parameters: species or system ICR mice; details: for Cl: IV 1.0 mg/kg; for C8 h / C24 h / Cmax: plasma
Procedure: Pharmacokinetics assay for test compounds was performed in mice via IV and PO.
Test compound solution was prepared on the day of administration.
Solvent: IV+PO: 5% DMSO+10% Soultol+85% H2O or saline
Species: ICR mice; SPF level.
Source: Beijing Vital River Laboratory Animal Technology Co., Ltd.
Animal selection: Males. No random grouping
Weighed before dosing, calculated dosage according to body weight. For Groups 1-3, the drug was administered intravenously or intragastrically. For Group 4, the drug administered intragastrically.
For Groups 1-3, at 0.083 h, 0.25 h, 0.5 h, 1 h, 2 h, 4 h, 6 h, 8 h, 24 h, after administration. For Group 4, at 2 h and 4 h after administration.
Blood was collected through the cheeks. For each sample, about 0.05 mL of blood was collected and was added heparin sodium or EDTA-2K as anticoagulant, and was placed on wet ice.
The blood samples were collected and placed on ice and was centrifuged within 1 hour (centrifugation: 6000 g, 3 minutes, 2-8° C.) to separate plasma. Plasma samples were stored in a −80° C. refrigerator prior to analysis.
The pharmacokinetic parameters were calculated using Phoenix WinNonlin8.2.0 based on the blood concentration data at different time points, and AUC0-t, AUC0-∞, MRT0-∞, Cmax, Tmax, and T1/2 and mean values and standard deviations thereof were provided.

[9] = microsomes; for CLint (mic) H / T1/2 of LMS, H: human
[10] = tested on: cryopreserved hepatocytes; assay: Hepatic metabolic stability (HMS) assay, mouse hepatocytes; details: for T1/2 (hepatocytes) M / CLint (liver) M: mouse hepatocytes; for T1/2 (hepatocytes) M: 1 μM test compound (3 μM positive control); for CLint (liver) M: scaled to liver; for CLint (hep) M: mouse, hepatocytes
Procedure: 1) 10 mM test compounds were provided.
2) 30 mM positive control stock solutions: Dissolved accurate amount of positive control compounds in dimethyl sulfoxide (DMSO).
3) 1000× Stock Solution: Diluted 10 mM test compounds and 30 mM positive control compounds to 1 mM and 3 mM with DMSO in 96-well plates.
4) 100× Dosing Solution: Diluted 1 mM test compounds and 3 mM positive control compounds to 100 μM and 300 μM dosing solutions with ACN.
5) Preparation of 0.5×10^6/mL cells suspension: cryopreserved cells were thawed, isolated and suspended in Incubation Medium, then diluted with pre-warmed Incubation Medium to 0.5×10^6 cells/mL.
6) Add 198 μL of pre-warmed cell suspensions in 96-well plates.
7) Preparation of Quenching Plate: Transfer 125 μL of stop solution in a set of pre-labeled 96-well plates.
8) Spike 2 μL dosing solution to each well of 96-well plates in duplicate.
9) For TO Samples, mix to achieve a homogenous suspension for about 1 min, then immediately transfer 25 μL of each sample into well containing 125 μL of ice-cold stop solution followed by mixing.
10) Incubate all plates at 37° C. in a 95% humidified incubator at 5% CO2 to start the reactions with constant shaking.
11) At 15, 30, 60 and 90 min, mix samples and then transfer 25 μL of each sample at each time point to well containing 125 μL of ice-cold stop solution followed by mixing.
12) Medium Control (MC) sample plates (labeled as TO-MC and T90-MC) are prepared in the same way as cell incubation except that medium was used instead of cell suspension.
13) At each corresponding time point, stop the reactions by removing the plates from incubator and mixing with 125 μL of ice-cold stop solution.
14) Vortex the plates immediately on a plate shaker at 600 rpm for 10 minutes. Then, centrifuge all sample plates at 3220×g for 20 min at 4° C.
15) After centrifugation, 80 μL/well of supernatant in the sample plates are transferred to another set of pre-labeled 96-well plates which containing 240 μL of ultra pure water according to the plate map.
16) Analytical plates are sealed and store at 4° C. until LC-MS/MS analysis.
The remaining percents of test articles after incubation were calculated by the follow equations:
Use the following equation of first order kinetics to calculate T1/2 and CLint:

[11] = PO (Group 4 design: 30 mg/kg), 2 h
[12] = PO (Group 4 design: 30 mg/kg), 4 h

Sequence of PRMT5/MEP50 (O14744 whole entry): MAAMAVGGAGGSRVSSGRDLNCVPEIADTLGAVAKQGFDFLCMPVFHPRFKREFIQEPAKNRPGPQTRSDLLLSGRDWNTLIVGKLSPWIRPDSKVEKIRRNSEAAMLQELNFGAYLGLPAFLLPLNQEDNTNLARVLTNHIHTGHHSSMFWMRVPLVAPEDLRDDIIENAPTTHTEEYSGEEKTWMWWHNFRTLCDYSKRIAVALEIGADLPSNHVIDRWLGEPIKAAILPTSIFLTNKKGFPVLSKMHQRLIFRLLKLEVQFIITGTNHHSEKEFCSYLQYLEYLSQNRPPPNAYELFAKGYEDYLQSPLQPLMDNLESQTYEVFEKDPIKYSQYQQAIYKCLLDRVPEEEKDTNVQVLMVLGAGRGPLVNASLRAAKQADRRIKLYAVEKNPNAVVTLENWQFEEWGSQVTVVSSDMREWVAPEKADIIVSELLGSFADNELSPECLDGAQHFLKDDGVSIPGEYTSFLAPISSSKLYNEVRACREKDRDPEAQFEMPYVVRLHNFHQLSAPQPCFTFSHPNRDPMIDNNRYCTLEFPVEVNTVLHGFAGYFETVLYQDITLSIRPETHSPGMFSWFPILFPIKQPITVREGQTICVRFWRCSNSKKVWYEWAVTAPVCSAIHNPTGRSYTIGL
Sequence of PRMT5/MEP50 (Q9BQA1 whole entry partner): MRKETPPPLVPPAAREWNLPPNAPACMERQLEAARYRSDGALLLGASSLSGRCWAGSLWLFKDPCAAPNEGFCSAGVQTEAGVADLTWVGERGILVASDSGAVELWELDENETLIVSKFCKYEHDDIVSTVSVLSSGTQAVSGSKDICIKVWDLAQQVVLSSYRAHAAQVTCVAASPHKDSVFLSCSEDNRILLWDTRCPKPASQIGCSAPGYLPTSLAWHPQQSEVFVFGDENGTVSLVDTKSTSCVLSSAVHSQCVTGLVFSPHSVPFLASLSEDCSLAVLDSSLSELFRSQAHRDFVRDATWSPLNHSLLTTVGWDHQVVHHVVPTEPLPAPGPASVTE

Structure (SMILES)	IC50 [1] [nM]	T1/2 (hepatocytes) C [2] [h]	CLint (liver) C [2] [mL/min/kg]	CLint (hep) C [2] [μL/min/10^6]	IC50 (PRMT5/MEP50) [nM]	T1/2 (hepatocytes) R [3] [h]	CLint (liver) R [3] [mL/min/kg]	CLint (hep) R [3] [μL/min/10^6]	CLint (mic) C [4] [µL/min/mg]	T1/2 of LMS, C [4] [h]	T1/2 of LMS, M [7] [h]	Cl [8] [mL/min/kg]	AUC0-t ([8]; PO 10 mg/kg) [ng·h/mL]	T1/2 ([8]; PO 10 mg/kg) [h]	C8 h ([8]; PO 10 mg/kg) [ng/mL]	C24 h ([8]; PO 10 mg/kg) [ng/mL]	Cmax ([8]; PO 10 mg/kg) [ng/mL]	T1/2 (hepatocytes) M [10] [h]	CLint (liver) M [10] [mL/min/kg]	CLint (hep) M [10] [μL/min/10^6]	other results
CN(C(=O)c1cc2c(cn1)nc(N)c1cncn12)C1COc2cc(C(F)(F)F)ccc21 (stereo not drawn) [Compound 19]	39	3.552	23.4	6.5	25	2.443	44.3	9.5	<9.6	>2.42	2	4.38	32782	4.88	1833	178	2620	2.35	116.7	9.8	CLint (liver) C [4]: <13.0 mL/min/kg; IC50 [5]: 3060 nM; CLint (mic) D [6]: <9.6 µL/min/mg; T1/2 of LMS, D [6]: >2.42 h; CLint (liver) D [6]: <13.8 mL/min/kg; AUC0-t ([8]; PO 30 mg/kg): 94249 ng·h/mL; T1/2 ([8]; PO 30 mg/kg): 5.26 h; C8 h ([8]; PO 30 mg/kg): 4817 ng/mL; C24 h ([8]; PO 30 mg/kg): 540 ng/mL; Cmax ([8]; PO 30 mg/kg): 8117 ng/mL; CLint (mic) H [9]: <9.6 µL/min/mg; T1/2 of LMS, H [9]: >2.42 h; CLint (liver) H [9]: <8.6 mL/min/kg; CLint (liver) R (microsomes): <17.3 mL/min/kg; CLint (mic) R (rat, microsomes): <9.6 µL/min/mg; T1/2 of LMS, R (rat, microsomes): >2.42 h
CN(C(=O)c1cc2c(cn1)nc(N)c1cncn12)C1COc2cc(C(F)(F)F)ccc21 (stereo not drawn) [Compound 21]		>3.613	<23	<6.4	25	2.983	36.2	7.7	<9.6	>2.42	1.82	3.94	43397	6.67	2537	415	2820	2.582	106.3	8.9	CLint (liver) C [4]: <13.0 mL/min/kg; CLint (mic) D [6]: <9.6 µL/min/mg; T1/2 of LMS, D [6]: >2.42 h; CLint (liver) D [6]: <13.8 mL/min/kg; AUC0-t ([8]; PO 30 mg/kg): 124997 ng·h/mL; T1/2 ([8]; PO 30 mg/kg): 6.45 h; C8 h ([8]; PO 30 mg/kg): 6880 ng/mL; C24 h ([8]; PO 30 mg/kg): 1257 ng/mL; Cmax ([8]; PO 30 mg/kg): 8710 ng/mL; CLint (mic) H [9]: <9.6 µL/min/mg; T1/2 of LMS, H [9]: >2.42 h; CLint (liver) H [9]: <8.6 mL/min/kg; CLint (liver) R (microsomes): <17.3 mL/min/kg; CLint (mic) R (rat, microsomes): <9.6 µL/min/mg; T1/2 of LMS, R (rat, microsomes): >2.42 h
CN(C(=O)c1cc2c(cn1)nc(N)c1cncn12)C1CC(F)(F)c2cc(C(F)(F)F)ccc21 (stereo not drawn) [Compound 24]	52	2.193	37.9	10.5	14	1.797	60.2	12.9			>2.42	2.41	44942	4.41	2598	186	3355	1.27	216.4	18.2	IC50 [5]: 3930 nM; AUC0-t ([8]; PO 50 mg/kg): 130284 ng·h/mL; T1/2 ([8]; PO 50 mg/kg): 3.23 h; C8 h ([8]; PO 50 mg/kg): 4983 ng/mL; C24 h ([8]; PO 50 mg/kg): 178 ng/mL; Cmax ([8]; PO 50 mg/kg): 15733 ng/mL; Mean Concentration In brain [8, 11]: 3132 ± 1647 ng/g; Mean Concentration In plasma [8, 11]: 6327 ± 2604 ng/mL; Mean Concentration In brain [8, 12]: 3084 ± 145 ng/g; Mean Concentration In plasma [8, 12]: 5983 ± 361 ng/mL; B/P ratio ([8]; PO (Group 4 design: 30 mg/kg), brain to plasma, one value for 2 h and 4 h): 51%; CLint (mic) R (rat liver microsome): <9.6 µL/min/mg; T1/2 of LMS, R (rat liver microsome 0.5 mg protein/mL, 1 μM, NADPH): >2.42 h; CLint (liver) R (rat liver microsome, scaled to liver): <17.3 mL/min/kg
